For 32 compounds, IC50 results are on record in patent US8053435B2, “Naphthalenyloxypropenyl derivatives having inhibitory activity against histone deacetylase and pharmaceutical composition comprising the same” (Korea Research Institute of Chemical Technology, priority 2006, dated 2011).

Where two headings read alike, the source gives them in different places.

This assay relates to HDAC. Put plainly: Inhibitory activity against HDAC (BIOMOL Quantizyme Assay system, Fluor de Lys substrate). The format is biochemical. As to conditions: HeLa nuclear extract as source of HDAC enzymes, enzyme reaction 1 hr. How it is done:
HDAC activity was analyzed using BIOMOL Quantizyme™ Assay system which comprised two steps of 1) enzyme reaction between HDAC and a substrate and 2) determination of the level of HDAC inhibitory activity.
(§1) 0.5 μl of HeLa nuclear organic layer (10 μM) (a source of HDAC enzymes) was then added thereto to a final concentration of 100 nM. The enzyme reaction was carried out for 1 hr.
Subsequently, in step 2), 2 μM tricostatin A was added to 50 μl of Flour de Lys™ developer, followed by allowing the mixture to react at room temperature for 15 minutes. The light excited at 355 nm and emitted at 460 nm from the fluorophore was measured with a fluorometric plate reader. The intensity of the fluorescence increases as the enzyme activity is higher. The HDAC inhibitory activity of each of the test compounds was determined and compared with that of the control.
0.5 μl of HeLa nuclear organic layer (10 μM) (a source of HDAC enzymes) was then added thereto to a final concentration of 100 nM, The enzyme reaction was carried out for 1 hr.
as §1, §1

Setting [1] is: Table 1, formula (1) series, read-out: IC50 (HDAC inhibitory concentration).
Where [2] appears, read: Table 3, formula (2) series, read-out: IC50 (HDAC inhibitory concentration).
Setting [3] is: Table 5, formula (3) series, read-out: Inhibitory conc. (IC50, μM/ml).
Setting [4] is: Table 7, formula (4) series, read-out: HDAC Inhibitory conc. (IC50, μM/ml).

Consider `O=C(NCCCn1ccnc1)/C(=C/c1ccc(C(=O)NO)cc1)COc1cccc2ccccc12` [Example 1-2, (E)-4-(3-(3-(1H-Imidazol-1-yl)propylamino)-2-((naphthalen-1-yloxy)methyl)-3-oxopropenyl)-N-hydroxybenzamide], for which the IC50 under setting [1] stood at 0.028 µM.
Still for that read-out and setting: as for `COc1ccc(CCNC(=O)/C(=C/c2ccc(C(=O)NO)cc2)COc2cccc3ccccc23)cc1` [Example 1-3, (E)-4-(3-(4-Methoxyphenethylamino)-2-((naphthalen-1-yloxy)methyl)-3-oxoprop-1-enyl)-N-hydroxybenzamide], the figure is 0.08 µM.
Same read-out and setting: as for `CC(C)N(CCNC(=O)/C(=C/c1ccc(C(=O)NO)cc1)COc1cccc2ccccc12)C(C)C` [Example 1-5], the figure is 0.014 µM.
Same read-out and setting: next, `O=C(NCC1CCCO1)C(=Cc1ccc(C(=O)NO)cc1)COc1cccc2ccccc12` (centres unmarked) [Example 1-9, (E)-4-(3-(Tetrahydrofuran-2-yl)methylamino)-2-((naphthalen-1-yloxy)methyl)-3-oxoprop-1-enyl)-N-hydroxybenzamide]: 0.06 µM; `O=C(NCCCN1CCCC1=O)/C(=C/c1ccc(C(=O)NO)cc1)COc1cccc2ccccc12` [Example 1-11, (E)-4-(3-(3-(2-Oxopyrrolidin-1-yl)propylamino)-2-((naphthalen-1-yloxy)methyl)-3-oxoprop-1-enyl)-N-hydroxy-benzamide]: 0.04 µM.
As for `COCCNC(=O)/C(=C/c1ccc(C(=O)NO)cc1)COc1cccc2ccccc12` [Example 1-14, (E)-4-(3-(2-Methoxyethylamino)-2-((naphthalen-1-yloxy)methyl)-3-oxoprop-1-enyl)-N-hydroxybenzamide], under setting [1], the IC50 was 0.03 µM.
For the compound `O=C(NC1CCCCC1)/C(=C/c1ccc(C(=O)NO)cc1)COc1cccc2ccccc12` [Example 1-15, (E)-4-(3-(Cyclohexylamino)-2-((naphthalen-1-yloxy)methyl)-3-oxoprop-1-enyl)-N-hydroxybenzamide], under setting [1], the IC50 was 0.04 µM.
The same measure, in the same setting: next, `O=C(NCc1cccs1)/C(=C/c1ccc(C(=O)NO)cc1)COc1cccc2ccccc12` [Example 1-16, (E)-4-(3-(Thiophen-2-ylmethylamino)-2-((naphthalen-1-yloxy)methyl)-3-oxoprop-1-enyl)-N-hydroxybenzamide]: 0.01 µM; `O=C(NCCCN1CCOCC1)/C(=C/c1ccc(C(=O)NO)cc1)COc1cccc2ccccc12` [Example 1-18, (E)-4-(3-(3-Morpholinopropylamino)-2-((naphthalen-1-yloxy)methyl)-3-oxoprop-1-enyl)-N-hydroxybenzamide]: 0.021 µM; `CCOCCCNC(=O)/C(=C/c1ccc(C(=O)NO)cc1)COc1cccc2ccccc12` [Example 1-21, (E)-4-(3-(3-Ethoxypropylamino)-2-((naphthalen-1-yloxy)methyl)-3-oxoprop-1-enyl)-N-hydroxybenzamide]: 0.021 µM.
For `O=C(CCCC/C=C(\COc1cccc2ccccc12)C(=O)NCCc1ccc(O)cc1)NO` [Example 2-2, (E)-N8-Hydroxy-N1-(4-hydroxyphenethyl)-2-((naphthalen-1-yloxy)methyl)-2-octenediamide], the IC50 under setting [2] came to 0.009 µM.
The same measure, in the same setting: next, `COCC(C)NC(=O)/C(=C/CCCCC(=O)NO)COc1cccc2ccccc12` (centres unmarked) [Example 2-5, (E)-N8-Hydroxy-N1-(1-methoxypropan-2-yl)-2-((naphthalen-1-yloxy)methyl)-2-octenediamide]: 0.017 µM; `O=C(CCCC/C=C(\COc1cccc2ccccc12)C(=O)NCCc1ccc(F)cc1)NO` [Example 2-7, (E)-N1-(4-Fluorophenethyl)-N8-hydroxy-2-((naphthalen-1-yloxy)methyl)-2-octenediamide]: 0.02 µM.
As to `O=C(CCCC/C=C(\COc1cccc2ccccc12)C(=O)NCCC1=CCCCC1)NO` [Example 2-9, (E)-N1-(2-Cyclohexenylethyl)-N8-hydroxy-2-((naphthalen-1-yloxy)methyl)-2-octenediamide], the IC50 under setting [2] was found to be 0.027 µM.
Take `O=C(CCCC/C=C(\COc1cccc2ccccc12)C(=O)NCCCN1CCCC1=O)NO` [Example 2-10, (E)-N8-Hydroxy-2-((naphthalen-1-yloxy)methyl)-N1-(3-(2-oxopyrrolidin-1-yl)propyl)-2-octenediamide]: under setting [2], the IC50 is 0.016 µM.
In the case of `O=C(CCCC/C=C(\COc1cccc2ccccc12)C(=O)NCc1ccc(OC(F)(F)F)cc1)NO` [Example 2-17, (E)-N8-Hydroxy-2-((naphthalen-1-yloxy)methyl)-N1-(4-(trifluoromethoxy)benzyl)-2-octenediamide], under setting [2], the IC50 was 0.007 µM.
Same read-out and setting: next, `O=C(CCCC/C=C(\COc1cccc2ccccc12)C(=O)NC1CCN(CC2CCCCC2)C1)NO` (centres unmarked) [Example 2-18, (E)-N1-(1-(Cyclohexylmethyl)pyrrolidin-3-yl)-N8-hydroxy-2-((naphthalen-1-yloxy)methyl)-2-octenediamide]: 0.01 µM.
Consider `O=C(CCCC/C=C(\COc1cccc2ccccc12)C(=O)NC1CCN(C(=O)C2CCCCC2)C1)NO` (centres unmarked) [Example 2-22, (E)-N1-(1-(Cyclohexanecarbonyl)pyrrolidin-3-yl)-N8-hydroxy-2-((naphthalen-1-yloxy)methyl)-2-octenediamide], for which the IC50 under setting [2] was 0.022 µM.
Consider `O=C(CCCC/C=C(\COc1cccc2ccccc12)C(=O)NC1CCNC1)NO` (centres unmarked) [Example 2-24, (E)-N8-Hydroxy-2-((naphthalen-1-yloxy)methyl)-N1-(pyrrolidin-3-yl)-2-octenediamide], for which the IC50 under setting [2] worked out at 0.012 µM.
On the same count and under the same terms, as for `CCN1CCC(NC(=O)/C(=C/CCCCC(=O)NO)COc2cccc3ccccc23)CC1` [Example 2-28, (E)-N1-(1-Ethylpiperidin-4-yl)-N8-hydroxy-2-((naphthalen-1-yloxy)methyl)-2-octenediamide], the figure is 0.013 µM.
Take `CC1CCCCN1CCCNC/C(=C/CCCCC(=O)NO)COc1cccc2ccccc12` (centres unmarked) [Example 3-5, (Z)—N-Hydroxy-8-(3-(2-methylpiperidin-1-yl)propylamino)-7-((naphthalen-1-yloxy)methyl)oct-6-enamide]: the IC50 under setting [3] stood at 0.062 µM.
On the same count and under the same terms, next, `CN(C)CCCNC/C(=C/CCCCC(=O)NO)COc1cccc2ccccc12` [Example 3-6, (Z)-8-(3-(Dimethylamino)propylamino)-N-hydroxy-7-((naphthalen-1-yloxy)methyl)oct-6-enamide]: 0.002 µM; `CCN(CC)CCCNC/C(=C/CCCCC(=O)NO)COc1cccc2ccccc12` [Example 3-12, (Z)-8-(3-(Diethylamino)propylamino)-N-hydroxy-7-((naphthalen-1-yloxy)methyl)oct-6-enamide]: 0.113 µM; `CC(C)N(CCNC/C(=C/CCCCC(=O)NO)COc1cccc2ccccc12)C(C)C` [Example 3-13]: 0.042 µM.
In the case of `O=C(NO)c1ccc(/C=C(/CNCc2ccc(OC(F)(F)F)cc2)COc2cccc3ccccc23)cc1` [Example 4-3, (Z)—N-hydroxy-4-(3-(naphthalen-1-yloxy)-2-((4-(trifluoromethoxy)benzylamino)methyl)prop-1-enyl)-benzamide], the IC50 under setting [4] was determined as 0.14 µM.
The same measure, in the same setting: as for `CC(C)(C)OC(=O)N1CCC(NC/C(=C/c2ccc(C(=O)NO)cc2)COc2cccc3ccccc23)C1` (centres unmarked) [Example 4-4, t-butyl (Z)-3-(3-(4-(hydroxycarbamoyl)phenyl)-2-((naphthalen-1-yloxy)methyl)allylamino)-pyrrolidine-1-carboxylate], the figure is 0.208 µM.
On the same count and under the same terms, as for `O=C(NO)c1ccc(/C=C(/CNC2CCNC2)COc2cccc3ccccc23)cc1` (centres unmarked) [Example 4-5, (Z)—N-hydroxy-4-(3-(naphthalen-1-yloxy)-2-((pyrrolidin-3-ylamino)methyl)prop-1-enyl)-benzamide], the figure is 0.02 µM; as for `O=C(NO)c1ccc(/C=C(/CNC2CCN(C(=O)C3CCCCC3)C2)COc2cccc3ccccc23)cc1` (centres unmarked) [Example 4-6, (Z)-4-(3-(1-(cyclohexylcarbonyl)pyrrolidin-3-ylamino)-2-((naphthalen-1-yloxy)-methyl)prop-1-enyl)-N-hydroxybenzamide], 0.061 µM.
Still for that read-out and setting: next, `O=C(NO)c1ccc(/C=C(/CNC2CCN(CC3CCCCC3)C2)COc2cccc3ccccc23)cc1` (centres unmarked) [Example 4-8, (Z)-4-(3-(1-(cyclohexylmethyl)pyrrolidin-3-ylamino)-2-((naphthalen-1-yloxy)-methyl)prop-1-enyl)-N-hydroxybenzamide]: 0.045 µM; `O=C(NO)c1ccc(/C=C(/CNC2CCN(Cc3ccccc3)C2)COc2cccc3ccccc23)cc1` (centres unmarked) [Example 4-9, (Z)-4-(3-(1-benzylpyrrolidin-3-ylamino)-2-((naphthalen-1-yloxy)methyl)prop-1-enyl)-N-hydroxybenzamide]: 0.046 µM; `O=C(NO)c1ccc(/C=C(/CNC2CCN(C3CCCCC3)C2)COc2cccc3ccccc23)cc1` (centres unmarked) [Example 4-12, (Z)-4-(3-(1-cyclohexylpyrrolidin-3-ylamino)-2-((naphthalen-1-yloxy)methyl)prop-1-enyl)-N-hydroxybenzamide]: 0.04 µM.
In the case of `CN1CCCC1CCNC/C(=C/c1ccc(C(=O)NO)cc1)COc1cccc2ccccc12` (centres unmarked) [Example 4-14, (Z)—N-hydroxy-4-(3-(2-(1-methylpyrrolidin-2-yl)ethylamino)-2-((naphthalen-1-yloxy)methyl)prop-1-enyl)benzamide], under setting [4], the IC50 was 0.013 µM.
